Measurements taken from PubChem BioAssay AID1259407 (Chemical Carcinogenesis Research Information System (CCRIS), 2018).
Activity calls are given as the source filed them. How the calls were made is not given here.

Test system: CCRIS mutagenicity, Ames/micronucleus/aberration tests
Assay: CCRIS mutagenicity studies

Question: For C=CC#N, which mutagenic call (Test System: AMES SALMONELLA TYPHIMURIUM, Strain/Indicator: TA1535, Metabolic Activation: HAMSTER LIVER S-9, AROCLOR 1254 (5, 10, OR 30%), Method: PREINCUBATION) is on record?
Answer: active; positive

Question: What about the mutagenic call (Test System: AMES SALMONELLA TYPHIMURIUM, Strain/Indicator: TA1535, Metabolic Activation: HAMSTER, LIVER, S-9, AROCLOR 1254 (2.5-20%), Method: STANDARD PLATE) of the same compound?
Answer: active; positive

Question: What about the mutagenic call (Test System: AMES SALMONELLA TYPHIMURIUM, Strain/Indicator: TA1535, Metabolic Activation: HAMSTER, LIVER, S-9, AROCLOR 1254 (10%), Method: STANDARD PLATE) of the same compound?
Answer: active; positive

Question: And the mutagenic call (Test System: AMES SALMONELLA TYPHIMURIUM, Strain/Indicator: TA1535, Metabolic Activation: HAMSTER, LIVER, S-9, AROCLOR 1254 (10, 20%), Method: PREINCUBATION)?
Answer: active; positive

Question: What about the mutagenic call (Test System: AMES SALMONELLA TYPHIMURIUM, Strain/Indicator: TA1535, Metabolic Activation: HAMSTER, LIVER, S-9, AROCLOR 1254 (20%), Method: STANDARD PLATE) of the same compound?
Answer: active; positive

Question: And the mutagenic call (Test System: AMES SALMONELLA TYPHIMURIUM, Strain/Indicator: TA1535, Metabolic Activation: MOUSE, LIVER, S-9, AROCLOR 1254, Method: LIQUID, VAPOR, SPOT)?
Answer: active; positive

Question: And the mutagenic call (Test System: AMES SALMONELLA TYPHIMURIUM, Strain/Indicator: TA1535, Metabolic Activation: NONE, Method: PREINCUBATION)?
Answer: inactive; negative

Question: What about the mutagenic call (Test System: AMES SALMONELLA TYPHIMURIUM, Strain/Indicator: TA1535, Metabolic Activation: NONE, Method: STANDARD PLATE) of the same compound?
Answer: inactive; negative

Question: And the mutagenic call (Test System: AMES SALMONELLA TYPHIMURIUM, Strain/Indicator: TA1535, Metabolic Activation: RAT LIVER S-9, AROCLOR 1254 (5%), Method: PREINCUBATION)?
Answer: active; positive

Question: What about the mutagenic call (Test System: AMES SALMONELLA TYPHIMURIUM, Strain/Indicator: TA1535, Metabolic Activation: RAT LIVER S-9, AROCLOR 1254 (5,10, OR 30%), Method: PREINCUBATION) of the same compound?
Answer: active; positive

Question: And the mutagenic call (Test System: AMES SALMONELLA TYPHIMURIUM, Strain/Indicator: TA1535, Metabolic Activation: RAT LIVER S-9, AROCLOR 1254 (10% OR 30%), Method: PREINCUBATION)?
Answer: active; positive

Question: And the mutagenic call (Test System: AMES SALMONELLA TYPHIMURIUM, Strain/Indicator: TA1535, Metabolic Activation: RAT, LIVER, S-9, 3-METHYLCHOLANTHRENE OR PCB OR PHENOBARBITAL, Method: DESICCATOR)?
Answer: active; positive

Question: What about the mutagenic call (Test System: AMES SALMONELLA TYPHIMURIUM, Strain/Indicator: TA1535, Metabolic Activation: RAT, LIVER, S-9, AROCLOR 1254, Method: STANDARD PLATE) of the same compound?
Answer: inactive; negative

Question: What about the mutagenic call (Test System: AMES SALMONELLA TYPHIMURIUM, Strain/Indicator: TA1537, Metabolic Activation: NONE, Method: STANDARD PLATE) of the same compound?
Answer: inactive; negative

Question: What about the mutagenic call (Test System: AMES SALMONELLA TYPHIMURIUM, Strain/Indicator: TA1537, Metabolic Activation: RAT, LIVER, S-9, AROCLOR 1254, Method: STANDARD PLATE) of the same compound?
Answer: inactive; negative

Question: What about the mutagenic call (Test System: AMES SALMONELLA TYPHIMURIUM, Strain/Indicator: TA1538, Metabolic Activation: MOUSE, LIVER, S-9, AROCLOR 1254, Method: LIQUID, VAPOR, SPOT) of the same compound?
Answer: active; positive

Question: What about the mutagenic call (Test System: AMES SALMONELLA TYPHIMURIUM, Strain/Indicator: TA1538, Metabolic Activation: NONE, Method: STANDARD PLATE) of the same compound?
Answer: inactive; negative

Question: And the mutagenic call (Test System: AMES SALMONELLA TYPHIMURIUM, Strain/Indicator: TA1538, Metabolic Activation: RAT, LIVER, S-9, AROCLOR 1254, Method: STANDARD PLATE)?
Answer: inactive; negative

Question: What about the mutagenic call (Test System: AMES SALMONELLA TYPHIMURIUM, Strain/Indicator: TA1978, Metabolic Activation: MOUSE, LIVER, S-9, AROCLOR 1254, Method: VAPOR) of the same compound?
Answer: active; positive

Question: And the mutagenic call (Test System: Ames Salmonella typhimurium, Strain/Indicator: YG7108pin3ERb5, Metabolic Activation: None, Method: Standard plate)?
Answer: inactive; negative

Question: And the mutagenic call (Test System: CHINESE HAMSTER V-79, Strain/Indicator: V-79 (HGPRT)/8-AZAGUANINE, Metabolic Activation: NONE, Method: REPLATING)?
Answer: inactive; negative

Question: What about the mutagenic call (Test System: CHINESE HAMSTER V-79, Strain/Indicator: V-79 (HGPRT)/8-AZAGUANINE, Metabolic Activation: RAT, LIVER, S-9, AROCLOR 1254, Method: REPLATING) of the same compound?
Answer: inactive; negative

Question: And the mutagenic call (Test System: E. COLI, Strain/Indicator: WP2, Metabolic Activation: NONE, Method: FLUCTUATION)?
Answer: active; positive

Question: And the mutagenic call (Test System: E. COLI, Strain/Indicator: WP2, Metabolic Activation: NONE, Method: STANDARD PLATE)?
Answer: active; positive

Question: And the mutagenic call (Test System: E. COLI, Strain/Indicator: WP2 UVRA, Metabolic Activation: NONE, Method: STANDARD PLATE)?
Answer: active; positive

Question: What about the mutagenic call (Test System: MOUSE LYMPHOMA, Strain/Indicator: L5178Y (TK+/+)/OUABAIN, Metabolic Activation: NONE, Method: SUSPENSION/PLATE) of the same compound?
Answer: inactive; negative

Question: And the mutagenic call (Test System: MOUSE LYMPHOMA, Strain/Indicator: L5178Y (TK+/+)/OUABAIN, Metabolic Activation: RAT LIVER S-9, AROCLOR 1254, Method: SUSPENSION/PLATE)?
Answer: inactive; negative

Question: And the mutagenic call (Test System: MOUSE LYMPHOMA, Strain/Indicator: L5178Y (TK+/TK-), Metabolic Activation: RAT, LIVER, S-9, Method: SUSPENSION/PLATE)?
Answer: active; positive

Question: And the mutagenic call (Test System: MOUSE LYMPHOMA, Strain/Indicator: L5178Y(TK+/TK-)/TRIFLUOROTHYMIDINE, Metabolic Activation: NONE, Method: SUSPENSION PLATE)?
Answer: active; positive

Question: And the mutagenic call (Test System: UDS HUMAN MAMMARY EPITHELIAL CELLS, Strain/Indicator: THY INCORP, Metabolic Activation: NONE, Method: AUTORADIOGRAPHY)?
Answer: inactive; negative

Question: And the mutagenic call (Test System: UDS PRIMARY RAT HEPATOCYTES, Strain/Indicator: THY INCORP, Metabolic Activation: NONE, Method: AUTORADIOGRAPHY)?
Answer: inactive; negative

Question: And the mutagenic call (Test System: UDS PRIMARY RAT HEPATOCYTES, Strain/Indicator: THY INCORP, Metabolic Activation: NONE, Method: IN VIVO-IN VITRO)?
Answer: inactive; negative

Question: And the mutagenic call (Test System: UDS PRIMARY RAT SPERMATOCYTES, Strain/Indicator: THY INCORP, Metabolic Activation: NONE, Method: IN VIVO-IN VITRO)?
Answer: inactive; negative

Question: And the mutagenic call (Test System: UDS RAT HEPATOCYTES, Strain/Indicator: THY INCORP, Metabolic Activation: NONE, Method: LIQUID SCINTILLATION COUNTING)?
Answer: active; positive
